Measured values taken from ChEMBL document CHEMBL5465560, “Selectivity Literature for EUbOPEN Chemogenomic Library” (2024).

Columns and labels:
[1] = target: BDNF/NT-3 growth factors receptor (Homo sapiens) (UniProt Q16620); test: Selectivity interaction (KinomeScan (DiscoverX)) EUB0001079a NTRK2; details: at 1 µM
[2] = target: Ephrin type-A receptor 5 (Homo sapiens) (UniProt P54756); test: Selectivity interaction (Kinase panel (DSF assay)) EUB0001558a EPHA5
[3] = target: T1, Receptor-interacting serine/threonine-protein kinase 1 (Homo sapiens) (UniProt Q13546); test: Selectivity interaction (KinomeScan (DiscoverX)) EUB0000092b RIPK1; details: at 10 µM
T1 sequence (whole entry): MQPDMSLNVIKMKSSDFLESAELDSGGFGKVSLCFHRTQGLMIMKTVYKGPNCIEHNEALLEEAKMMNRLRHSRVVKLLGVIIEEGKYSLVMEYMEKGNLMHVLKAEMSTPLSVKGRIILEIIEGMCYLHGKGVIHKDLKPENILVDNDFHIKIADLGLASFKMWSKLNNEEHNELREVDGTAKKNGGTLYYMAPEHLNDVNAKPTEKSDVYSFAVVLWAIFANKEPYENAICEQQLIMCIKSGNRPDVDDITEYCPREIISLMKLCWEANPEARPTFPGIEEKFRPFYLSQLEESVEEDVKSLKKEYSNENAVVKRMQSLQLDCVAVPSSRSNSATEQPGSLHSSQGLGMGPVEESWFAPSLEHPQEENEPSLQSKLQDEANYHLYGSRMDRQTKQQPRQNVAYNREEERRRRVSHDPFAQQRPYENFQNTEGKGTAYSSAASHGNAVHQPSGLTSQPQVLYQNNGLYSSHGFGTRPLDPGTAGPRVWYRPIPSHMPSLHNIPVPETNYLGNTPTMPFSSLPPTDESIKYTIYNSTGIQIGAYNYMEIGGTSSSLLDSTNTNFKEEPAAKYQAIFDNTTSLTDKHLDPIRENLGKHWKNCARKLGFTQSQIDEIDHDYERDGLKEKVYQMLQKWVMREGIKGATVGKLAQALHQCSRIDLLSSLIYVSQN

[4] = target: Serine/threonine-protein kinase PLK1 (Homo sapiens, UniProt P53350); test: Selectivity interaction (Ambit KINOMEscan and KiNATiv profiling in Jurkat cells) EUB0000090b PLK1; type: cell-based; details: at 1 µM
[5] = target: Casein kinase I isoform alpha (Homo sapiens, UniProt P48729); test: Selectivity interaction (Ambit KINOMEscan and KiNATiv profiling in Jurkat cells) EUB0000090b CSNK1A1; type: cell-based; details: at 1 µM
[6] = target: Glycogen synthase kinase-3 beta (Homo sapiens, UniProt P49841); test: Selectivity interaction (KinomeScan (DiscoverX)) EUB0000045b GSK3B
[7] = target: Serine/threonine-protein kinase PAK 2 (Homo sapiens) (UniProt Q13177); test: Selectivity interaction (KinomeScan (DiscoverX)) EUB0000045b PAK2
[8] = target: T2, Serine/threonine-protein kinase LATS1 (Homo sapiens) (UniProt O95835); details: at 10 µM
T2 sequence (whole entry): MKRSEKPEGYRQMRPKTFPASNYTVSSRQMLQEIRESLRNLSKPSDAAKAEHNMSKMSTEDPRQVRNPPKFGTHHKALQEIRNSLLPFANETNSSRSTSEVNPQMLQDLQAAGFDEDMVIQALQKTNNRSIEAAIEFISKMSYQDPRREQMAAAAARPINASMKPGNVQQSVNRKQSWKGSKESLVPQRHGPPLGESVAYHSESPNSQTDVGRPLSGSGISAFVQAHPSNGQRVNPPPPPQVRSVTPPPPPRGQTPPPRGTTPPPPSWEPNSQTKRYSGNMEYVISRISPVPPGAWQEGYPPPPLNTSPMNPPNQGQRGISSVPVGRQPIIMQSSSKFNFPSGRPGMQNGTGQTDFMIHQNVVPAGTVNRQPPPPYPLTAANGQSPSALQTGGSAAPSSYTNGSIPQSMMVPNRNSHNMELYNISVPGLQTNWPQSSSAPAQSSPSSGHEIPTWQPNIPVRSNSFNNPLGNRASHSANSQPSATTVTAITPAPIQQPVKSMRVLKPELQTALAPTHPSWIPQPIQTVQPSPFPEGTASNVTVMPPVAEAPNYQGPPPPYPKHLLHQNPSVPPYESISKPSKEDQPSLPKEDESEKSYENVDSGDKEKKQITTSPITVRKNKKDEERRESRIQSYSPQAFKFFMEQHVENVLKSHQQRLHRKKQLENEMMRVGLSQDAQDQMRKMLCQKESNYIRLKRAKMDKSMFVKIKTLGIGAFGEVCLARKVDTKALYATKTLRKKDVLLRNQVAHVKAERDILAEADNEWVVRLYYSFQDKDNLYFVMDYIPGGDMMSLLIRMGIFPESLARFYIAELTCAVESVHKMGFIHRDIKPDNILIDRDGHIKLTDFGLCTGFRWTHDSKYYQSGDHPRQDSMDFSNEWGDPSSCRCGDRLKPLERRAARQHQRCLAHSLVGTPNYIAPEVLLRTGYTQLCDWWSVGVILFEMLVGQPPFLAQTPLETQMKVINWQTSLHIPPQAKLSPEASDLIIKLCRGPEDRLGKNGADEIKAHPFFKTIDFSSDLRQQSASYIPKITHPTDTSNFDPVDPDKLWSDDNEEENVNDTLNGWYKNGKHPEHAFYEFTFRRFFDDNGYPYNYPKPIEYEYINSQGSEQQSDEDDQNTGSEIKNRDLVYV

[9] = target: T3, Serine/threonine-protein kinase RIO1 (Homo sapiens) (UniProt Q9BRS2); test: Selectivity interaction (KinomeScan (DiscoverX)) EUB0001619a RIOK1; details: at 1 µM
T3 sequence (whole entry): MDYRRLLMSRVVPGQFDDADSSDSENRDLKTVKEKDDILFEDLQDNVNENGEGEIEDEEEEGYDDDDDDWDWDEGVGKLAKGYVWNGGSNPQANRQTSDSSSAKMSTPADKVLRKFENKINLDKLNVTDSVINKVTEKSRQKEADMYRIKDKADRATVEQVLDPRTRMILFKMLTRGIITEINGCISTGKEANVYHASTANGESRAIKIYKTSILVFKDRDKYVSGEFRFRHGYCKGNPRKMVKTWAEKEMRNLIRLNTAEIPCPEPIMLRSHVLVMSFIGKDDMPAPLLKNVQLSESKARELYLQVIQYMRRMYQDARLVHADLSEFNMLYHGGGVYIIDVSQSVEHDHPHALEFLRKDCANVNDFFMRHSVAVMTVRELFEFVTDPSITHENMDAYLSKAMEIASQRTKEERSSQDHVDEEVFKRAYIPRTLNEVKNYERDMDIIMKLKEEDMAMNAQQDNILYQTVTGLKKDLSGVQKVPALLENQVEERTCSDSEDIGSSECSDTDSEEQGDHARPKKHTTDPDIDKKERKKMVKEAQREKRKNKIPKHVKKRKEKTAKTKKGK

[10] = target: Macrophage colony-stimulating factor 1 receptor (Homo sapiens) (UniProt P07333); test: Selectivity interaction (SelectScreen profiling (Invitrogen)) EUB0000607a CSF1R; details: at 2 µM
Macrophage colony-stimulating factor 1 receptor (Homo sapiens), sequence (P07333 whole entry): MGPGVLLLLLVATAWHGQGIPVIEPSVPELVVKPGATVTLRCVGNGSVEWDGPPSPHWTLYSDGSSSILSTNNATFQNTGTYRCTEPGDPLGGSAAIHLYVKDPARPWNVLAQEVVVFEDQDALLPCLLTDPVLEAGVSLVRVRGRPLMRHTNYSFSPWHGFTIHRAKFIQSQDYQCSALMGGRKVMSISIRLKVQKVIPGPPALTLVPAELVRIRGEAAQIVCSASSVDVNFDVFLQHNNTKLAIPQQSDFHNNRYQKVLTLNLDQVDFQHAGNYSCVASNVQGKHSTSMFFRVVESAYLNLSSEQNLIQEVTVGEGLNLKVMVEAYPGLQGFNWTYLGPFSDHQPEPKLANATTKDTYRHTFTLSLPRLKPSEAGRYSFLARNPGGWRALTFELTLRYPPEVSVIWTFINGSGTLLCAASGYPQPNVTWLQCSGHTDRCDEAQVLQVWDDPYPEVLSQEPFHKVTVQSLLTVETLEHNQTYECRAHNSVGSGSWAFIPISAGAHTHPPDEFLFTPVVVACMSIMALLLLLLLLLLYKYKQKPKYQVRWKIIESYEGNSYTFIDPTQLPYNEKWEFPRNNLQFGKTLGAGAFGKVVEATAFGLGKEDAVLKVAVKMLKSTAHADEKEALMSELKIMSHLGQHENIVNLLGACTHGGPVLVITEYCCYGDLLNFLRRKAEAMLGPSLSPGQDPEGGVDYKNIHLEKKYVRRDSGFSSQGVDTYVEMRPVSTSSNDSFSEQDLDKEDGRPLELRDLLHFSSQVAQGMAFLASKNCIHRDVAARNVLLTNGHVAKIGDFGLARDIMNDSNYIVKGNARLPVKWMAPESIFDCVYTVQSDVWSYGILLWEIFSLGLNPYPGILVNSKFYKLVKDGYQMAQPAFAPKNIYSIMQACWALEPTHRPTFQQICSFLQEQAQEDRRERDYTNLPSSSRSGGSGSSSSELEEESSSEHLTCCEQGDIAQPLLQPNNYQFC

Glycogen synthase kinase-3 beta, sequence (P49841 whole entry, looked up): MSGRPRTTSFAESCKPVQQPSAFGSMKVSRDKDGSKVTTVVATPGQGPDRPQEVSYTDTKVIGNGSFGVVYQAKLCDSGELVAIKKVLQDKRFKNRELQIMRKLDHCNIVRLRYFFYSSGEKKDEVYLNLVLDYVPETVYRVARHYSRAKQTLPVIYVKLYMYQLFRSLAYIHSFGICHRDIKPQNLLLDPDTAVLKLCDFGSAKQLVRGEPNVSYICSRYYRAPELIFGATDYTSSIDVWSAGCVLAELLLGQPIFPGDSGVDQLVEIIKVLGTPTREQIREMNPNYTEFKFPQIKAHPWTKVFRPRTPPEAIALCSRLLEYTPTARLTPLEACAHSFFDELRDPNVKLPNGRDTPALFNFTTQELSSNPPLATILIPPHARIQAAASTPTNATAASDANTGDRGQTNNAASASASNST
Serine/threonine-protein kinase PAK 2 (Homo sapiens), sequence (Q13177 whole entry): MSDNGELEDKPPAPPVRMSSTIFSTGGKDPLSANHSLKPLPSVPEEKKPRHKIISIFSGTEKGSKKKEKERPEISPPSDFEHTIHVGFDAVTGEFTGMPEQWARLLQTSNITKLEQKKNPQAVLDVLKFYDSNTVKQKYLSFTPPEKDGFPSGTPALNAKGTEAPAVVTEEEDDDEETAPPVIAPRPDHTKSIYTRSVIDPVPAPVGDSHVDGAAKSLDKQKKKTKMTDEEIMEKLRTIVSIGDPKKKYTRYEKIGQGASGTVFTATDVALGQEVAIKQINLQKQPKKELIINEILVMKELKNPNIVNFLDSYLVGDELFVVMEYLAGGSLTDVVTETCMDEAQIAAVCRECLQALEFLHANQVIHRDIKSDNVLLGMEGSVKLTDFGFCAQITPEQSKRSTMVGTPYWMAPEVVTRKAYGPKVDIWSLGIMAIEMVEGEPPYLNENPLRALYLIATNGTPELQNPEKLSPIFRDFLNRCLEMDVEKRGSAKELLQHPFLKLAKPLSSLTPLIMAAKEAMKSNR
Ephrin type-A receptor 5 (Homo sapiens), sequence (P54756 whole entry): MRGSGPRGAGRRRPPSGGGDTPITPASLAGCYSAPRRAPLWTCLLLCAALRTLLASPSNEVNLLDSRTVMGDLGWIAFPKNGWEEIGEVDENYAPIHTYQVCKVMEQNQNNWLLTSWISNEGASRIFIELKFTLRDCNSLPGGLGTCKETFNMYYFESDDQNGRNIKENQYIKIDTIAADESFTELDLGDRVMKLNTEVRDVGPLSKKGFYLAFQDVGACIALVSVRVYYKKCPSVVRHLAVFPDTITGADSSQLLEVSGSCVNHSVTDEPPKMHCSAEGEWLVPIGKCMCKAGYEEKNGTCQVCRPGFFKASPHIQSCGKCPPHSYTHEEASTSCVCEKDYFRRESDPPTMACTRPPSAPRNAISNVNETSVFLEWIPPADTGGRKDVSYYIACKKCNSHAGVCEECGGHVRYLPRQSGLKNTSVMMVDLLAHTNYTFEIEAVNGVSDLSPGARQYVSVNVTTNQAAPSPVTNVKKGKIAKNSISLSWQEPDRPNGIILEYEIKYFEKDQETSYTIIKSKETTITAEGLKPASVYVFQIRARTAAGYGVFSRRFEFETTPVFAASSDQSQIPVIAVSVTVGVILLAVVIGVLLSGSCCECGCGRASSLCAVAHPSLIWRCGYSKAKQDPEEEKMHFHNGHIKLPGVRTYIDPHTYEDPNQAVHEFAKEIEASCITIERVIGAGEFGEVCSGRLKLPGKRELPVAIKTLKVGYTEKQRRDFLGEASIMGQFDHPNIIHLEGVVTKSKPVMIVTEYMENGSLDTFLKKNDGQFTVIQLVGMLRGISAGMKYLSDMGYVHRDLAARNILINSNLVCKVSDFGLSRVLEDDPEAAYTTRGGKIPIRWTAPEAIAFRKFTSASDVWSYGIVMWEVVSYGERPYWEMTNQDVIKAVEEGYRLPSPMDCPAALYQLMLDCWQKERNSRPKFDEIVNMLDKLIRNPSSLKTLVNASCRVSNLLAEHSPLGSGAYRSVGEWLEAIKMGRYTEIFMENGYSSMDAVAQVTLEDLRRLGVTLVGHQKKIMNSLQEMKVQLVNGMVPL
BDNF/NT-3 growth factors receptor (Homo sapiens), sequence (Q16620 32-822 limits assumed): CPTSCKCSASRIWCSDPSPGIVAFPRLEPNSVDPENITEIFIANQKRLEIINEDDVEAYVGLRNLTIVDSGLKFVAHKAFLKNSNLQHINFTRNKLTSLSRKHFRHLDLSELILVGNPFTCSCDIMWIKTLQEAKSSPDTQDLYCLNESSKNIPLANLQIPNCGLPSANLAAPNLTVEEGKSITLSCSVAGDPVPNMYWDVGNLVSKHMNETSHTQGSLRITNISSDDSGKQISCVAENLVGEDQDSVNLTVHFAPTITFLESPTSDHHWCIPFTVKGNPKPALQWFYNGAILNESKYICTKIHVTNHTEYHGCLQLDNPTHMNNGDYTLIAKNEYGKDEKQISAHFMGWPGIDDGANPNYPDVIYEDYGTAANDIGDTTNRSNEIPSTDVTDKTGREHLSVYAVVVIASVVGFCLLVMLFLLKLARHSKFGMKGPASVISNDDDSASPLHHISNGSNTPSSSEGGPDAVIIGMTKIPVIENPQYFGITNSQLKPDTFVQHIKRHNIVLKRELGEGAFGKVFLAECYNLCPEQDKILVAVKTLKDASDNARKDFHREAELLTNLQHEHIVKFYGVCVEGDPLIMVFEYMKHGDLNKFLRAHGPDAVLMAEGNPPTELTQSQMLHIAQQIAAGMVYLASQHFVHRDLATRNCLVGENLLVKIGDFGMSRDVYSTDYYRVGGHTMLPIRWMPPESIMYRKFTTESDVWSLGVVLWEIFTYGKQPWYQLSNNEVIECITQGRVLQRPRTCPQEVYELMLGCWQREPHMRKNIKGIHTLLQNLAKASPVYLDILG
Casein kinase I isoform alpha, sequence (P48729 2-337 limits assumed): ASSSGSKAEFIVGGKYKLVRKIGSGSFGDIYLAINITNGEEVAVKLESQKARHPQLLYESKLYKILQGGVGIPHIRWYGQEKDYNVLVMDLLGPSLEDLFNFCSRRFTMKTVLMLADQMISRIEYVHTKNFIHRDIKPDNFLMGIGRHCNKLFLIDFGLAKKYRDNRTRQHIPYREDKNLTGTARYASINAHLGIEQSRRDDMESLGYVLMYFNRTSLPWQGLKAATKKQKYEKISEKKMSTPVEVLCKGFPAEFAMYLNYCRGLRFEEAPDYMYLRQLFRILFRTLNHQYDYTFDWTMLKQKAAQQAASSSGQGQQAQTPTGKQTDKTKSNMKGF
Serine/threonine-protein kinase PLK1, sequence (P53350 whole entry, canonical isoform): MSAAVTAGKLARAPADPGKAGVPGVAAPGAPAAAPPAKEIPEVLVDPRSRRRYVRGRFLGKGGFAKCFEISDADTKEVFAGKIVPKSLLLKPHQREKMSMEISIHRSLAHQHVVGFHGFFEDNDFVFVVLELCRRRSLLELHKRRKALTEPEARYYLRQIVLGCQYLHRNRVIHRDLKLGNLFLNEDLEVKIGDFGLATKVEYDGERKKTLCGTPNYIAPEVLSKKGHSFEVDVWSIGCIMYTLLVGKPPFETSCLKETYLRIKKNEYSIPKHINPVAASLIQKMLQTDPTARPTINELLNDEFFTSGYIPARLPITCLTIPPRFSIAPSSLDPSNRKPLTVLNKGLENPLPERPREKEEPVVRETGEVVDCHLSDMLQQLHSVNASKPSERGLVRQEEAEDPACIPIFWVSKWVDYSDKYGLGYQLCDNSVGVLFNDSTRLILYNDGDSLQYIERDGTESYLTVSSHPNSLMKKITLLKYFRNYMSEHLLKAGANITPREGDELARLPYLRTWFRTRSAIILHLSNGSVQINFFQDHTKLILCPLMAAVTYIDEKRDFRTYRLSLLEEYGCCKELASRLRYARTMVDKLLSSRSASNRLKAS

Question: With `Nc1cnc(N2CCc3cc(S(=O)(=O)Nc4c(F)cc(Cl)cc4F)cc(N4CCCC4=O)c32)nc1` [TP-020n] as the compound, how does the % of control [1] read?
Answer: 100%

Question: `CC(C)(O)[C@H](F)CN1Cc2cc(NC(=O)c3cnn4cccnc34)c(N3CCOCC3)cc2C1=O` was tested. Which dTM [2] did it give?
Answer: 2.4 K

Question: With `CCC(=O)N1CCN(c2ccc(-n3c(=O)ccc4cnc5ccc(-c6cnc7ccccc7c6)cc5c43)cc2C(F)(F)F)CC1` as the compound, how does the % of control [3] read?
Answer: 1.9%

Question: Which % of control [4] does the source give for `CN(C)C/C=C/C(=O)Nc1ccc(C(=O)N2CCCC(Nc3ncc(Cl)c(-c4c[nH]c5ccccc45)n3)C2)cc1` (configuration not stated) here?
Answer: 90%

Question: And the % of control [5]?
Answer: 51%

Question: With `C=CC(=O)Nc1cc(-n2c(=O)ccc3cnc4ccc(-c5ccc(NS(C)(=O)=O)cc5)cc4c32)ccc1C` as the compound, how does the % of control ([6]; at 1 µM) read?
Answer: 100%

Question: And the % of control ([6]; at 10 µM)?
Answer: 77%

Question: And the % of control ([7]; at 1 µM)?
Answer: 78%

Question: What about the % of control ([7]; at 10 µM) of the same compound?
Answer: 92%

Question: `Cc1cc([C@@H](C)Nc2ccccc2C(=O)O)c2nc(N3CCOCC3)cc(=O)n2c1` [AZD-6482] was tested. Which % of control [8] did it give?
Answer: 100%

Question: How did the % of control [9] turn out when `N#Cc1cccc(-c2c[nH]c3ncnc(N4CCOCC4)c23)c1` was run?
Answer: 38%

Question: Which % of inhibition [10] does the source give for `CNC(=O)Nc1ccc(-c2nc(N3CC4CCC(C3)O4)c3cnn(C4CCC5(CC4)OCCO5)c3n2)cc1` here?
Answer: 7%
